Experimental data: patent US8017791B2, “Tri-substituted 2-benzhydryl-5-benzylamino-tetrahydro-pyran-4-ol and 6-benzhydryl-4-benzylamino-tetrahydro-pyran-3-ol analogues, and novel, 3,6-disubstituted pyran derivatives” (Wayne State University, priority 2003, dated 2011)
“Also recorded” adds a separate entry of the source. Where two headings read alike, the source gives them in different places.

Legend:
DAT [1] = target: T1, DAT (Rattus norvegicus, UniProt P23977); test: Inhibition of [3H]WIN 35,428 binding to DAT
T1 construct: rat striatum was the source for DAT, and cerebral cortex for SERT and NET; from tissue; P2 synaptosomal fraction for uptake
T1 sequence (P23977 whole entry): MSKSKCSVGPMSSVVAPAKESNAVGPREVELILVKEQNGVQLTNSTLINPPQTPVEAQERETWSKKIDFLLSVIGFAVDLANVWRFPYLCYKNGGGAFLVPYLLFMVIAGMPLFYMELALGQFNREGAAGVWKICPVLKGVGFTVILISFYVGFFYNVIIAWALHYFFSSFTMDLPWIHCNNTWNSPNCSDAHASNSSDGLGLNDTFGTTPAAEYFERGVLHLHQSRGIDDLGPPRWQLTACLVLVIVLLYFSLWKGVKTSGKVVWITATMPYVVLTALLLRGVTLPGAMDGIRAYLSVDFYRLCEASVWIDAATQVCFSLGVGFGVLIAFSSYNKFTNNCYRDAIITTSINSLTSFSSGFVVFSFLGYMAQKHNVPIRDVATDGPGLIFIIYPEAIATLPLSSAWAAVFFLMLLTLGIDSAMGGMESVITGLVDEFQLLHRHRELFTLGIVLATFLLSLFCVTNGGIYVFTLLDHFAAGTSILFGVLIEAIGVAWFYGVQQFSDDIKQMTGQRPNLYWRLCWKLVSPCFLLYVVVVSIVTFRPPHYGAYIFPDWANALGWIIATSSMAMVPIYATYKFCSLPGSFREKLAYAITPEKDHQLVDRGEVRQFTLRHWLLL
Method: (§1) Biology. […] Briefly, rat striatum was the source for DAT, and cerebral cortex for SERT and NET. […] Test compounds were dissolved in dimethyl sulfoxide (DMSO) and diluted out in 10% (v/v) DMSO. […] At least five triplicate concentrations of each test compound were studied, spaced evenly around the IC50 value. For DAT uptake assays, uptake of 50 nM [^3H]DA into rat striatal synaptosomes was measured exactly as described by us previously. Briefly, rat striatal P2 membrane fractions were incubated with test compounds for 8 min followed by the additional presence of [^3H]DA for 4 min at 25?. […] Construction of inhibition curves and dissolvement of test compounds were as described above.

SERT [2] = target: T2, SERT (Rattus norvegicus, UniProt P31652); test: Inhibition of [3H]citalopram binding to SERT; details: for SERT binding/DAT binding: Table 3, selectivity ratio of IC50 values
T2 construct: rat striatum was the source for DAT, and cerebral cortex for SERT and NET; from tissue; host or cells: rat cerebral cortex
T2 sequence (P31652 whole entry): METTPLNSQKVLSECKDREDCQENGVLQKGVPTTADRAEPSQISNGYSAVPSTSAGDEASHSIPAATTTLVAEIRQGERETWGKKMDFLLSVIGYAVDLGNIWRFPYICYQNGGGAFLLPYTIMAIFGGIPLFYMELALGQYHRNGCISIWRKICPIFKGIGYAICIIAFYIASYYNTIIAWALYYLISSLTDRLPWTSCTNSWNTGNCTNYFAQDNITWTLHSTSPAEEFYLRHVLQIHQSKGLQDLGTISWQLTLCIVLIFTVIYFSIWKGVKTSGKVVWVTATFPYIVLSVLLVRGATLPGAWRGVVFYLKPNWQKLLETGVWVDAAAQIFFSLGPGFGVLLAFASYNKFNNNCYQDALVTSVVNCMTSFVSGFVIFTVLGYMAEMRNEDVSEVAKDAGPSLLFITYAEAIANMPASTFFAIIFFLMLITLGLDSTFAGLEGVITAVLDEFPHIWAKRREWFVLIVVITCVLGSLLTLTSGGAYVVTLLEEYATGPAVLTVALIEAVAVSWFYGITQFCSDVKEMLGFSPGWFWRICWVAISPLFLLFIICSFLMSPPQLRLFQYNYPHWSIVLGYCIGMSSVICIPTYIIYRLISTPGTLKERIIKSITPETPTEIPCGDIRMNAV
Method: as §1

NET [3] = target: NET (Rattus norvegicus, UniProt Q9WTR4); test: Inhibition of [3H]nisoxetine binding to NET
Method: as §1

NET [4] = test: Inhibition of [3H]nisoxetine binding to NET; design: species or system rat; details: Table 3; selectivity ratio of IC50 values
Method: as §1

DAT [5] = target: T1, DAT; details: Table 2; values marked b: See reference # 22; read-out: DAT binding, IC50, [3H]Win 35,428; cited from earlier work
DAT [6] = target: T1, DAT; test: Inhibition of [3H]DA uptake by DAT into rat striatal synaptosomes; type: biochemical; details: for [3H]DA uptake/DAT binding: Table 3, ratio of IC50 values
Method: as §1

SERT [7] = target: T2, SERT; test: SERT uptake inhibition, [3H]5-HT; type: biochemical; details: for blockade of both SERT and NET (SNRI profile), in words: in vitro data
NET (Rattus norvegicus) = target: T3, NET (Rattus norvegicus); test: NET uptake inhibition, [3H]NE; type: biochemical; details: Table 4; rat brain
T3 construct: from tissue
T3 sequence (Q63380 1-617): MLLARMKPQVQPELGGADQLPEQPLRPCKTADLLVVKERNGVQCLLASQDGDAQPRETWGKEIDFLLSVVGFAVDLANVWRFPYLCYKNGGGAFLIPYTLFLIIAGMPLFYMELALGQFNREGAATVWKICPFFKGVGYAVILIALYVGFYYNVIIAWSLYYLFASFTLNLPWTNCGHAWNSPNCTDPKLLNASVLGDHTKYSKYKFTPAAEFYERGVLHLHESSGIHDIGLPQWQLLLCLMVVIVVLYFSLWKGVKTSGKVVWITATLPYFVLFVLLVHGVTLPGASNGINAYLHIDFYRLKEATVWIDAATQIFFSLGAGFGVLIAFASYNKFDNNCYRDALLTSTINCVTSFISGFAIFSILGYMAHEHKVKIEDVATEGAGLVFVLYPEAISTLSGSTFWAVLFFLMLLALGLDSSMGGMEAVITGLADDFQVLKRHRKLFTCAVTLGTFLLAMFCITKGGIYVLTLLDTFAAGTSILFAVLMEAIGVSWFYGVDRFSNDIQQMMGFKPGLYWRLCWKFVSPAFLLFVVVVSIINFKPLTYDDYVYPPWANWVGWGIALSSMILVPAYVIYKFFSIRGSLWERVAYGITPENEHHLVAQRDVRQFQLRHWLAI

NET [8] = target: T4, NET (Rattus norvegicus, UniProt Q63380); test: NET uptake inhibition, [3H]NE; type: biochemical; details: in vitro data, Table 4
T4 construct: from tissue
T4 sequence (Q63380 1-617): as above

[9] = Table 2, average ± SEM, read-out: SERT binding, IC50 [3H]citalopram
[10] = Table 2, average ± SEM, read-out: NET binding, IC50 [3H]nisoxetine
[11] = Table 2, average ± SEM, read-out: DAT uptake, IC50 [3H]DA
[12] = Table 4, rat brain, read-out: DAT binding, IC50, [3H]Win 35,428
[13] = Table 4, rat brain, read-out: DAT uptake, IC50 [3H]DA
[14] = Table 4, rat brain, read-out: SERT uptake, IC50 [3H]5-HT

SMILES: Fc1ccc(CN[C@H]2CC[C@H](C(c3ccccc3)c3ccccc3)OC2)cc1 (relative stereo) [Compound 16a, trans-2-diphenylmethyl-5-(4-fluorobenzylamino)-tetrahydropyran]
- activity at DAT, in words (DAT [1]): much weaker at DAT
- IC50 (DAT [1]; Table 1, rat striatum, read-out: Inhibition of [3H]Win 35,428 binding to DAT IC50): 313 ± 71 nM
- IC50 (SERT [2]; Table 1, read-out: Inhibition of [3H]citalopram binding to SERT, IC50): 8410 nM
- IC50 (SERT [2]; [9]): 8410 nM
- SERT binding/DAT binding (SERT [2]): 26.9
- IC50 (NET [3]; Table 1, read-out: Inhibition of [3H]nisoxetine binding to NET, IC50): 12700 nM
- IC50 (NET [3]; [10]): 12700 nM
- NET binding/DAT binding (NET [4]): 40.6
- IC50 (DAT [5]): 313 nM

SMILES: Fc1ccc(CN[C@H]2CC[C@@H](C(c3ccccc3)c3ccccc3)OC2)cc1 (relative stereo) [Compound 16b, Cis-(6-benzhydryl-tetrahydropyran-3-yl)-(4-fluoro-benzyl)-amine]
- IC50 (SERT [2]; [9]): 1860 nM
- SERT binding/DAT binding (SERT [2]): 11.4
- IC50 (NET [3]; [10]): 232 ± 46 nM
- NET binding/DAT binding (NET [4]): 1.4
- IC50 (DAT [6]; [11]): 146 ± 36 nM
- [3H]DA uptake/DAT binding (DAT [6]): 0.96
- IC50 (DAT [5]): 163 nM

SMILES: O=[N+]([O-])c1ccc(CN[C@H]2CC[C@@H](C(c3ccccc3)c3ccccc3)OC2)cc1 (relative stereo) [Compound 16d, Cis-(6-benzhydryl-tetrahydropyran-3-yl)-(4-nitro-benzyl)-amine]
- activity at DAT, in words (DAT [1]): the most active for the DAT
- IC50 (DAT [1]; read-out: IC50 at the DAT): 38.3 nM
- potency in inhibiting binding versus uptake, in words (DAT [6]; DA uptake assay compared with DAT binding): three fold higher potency in inhibiting binding than uptake
- IC50 (DAT [6]; [11]): 102 ± 7 nM
- [3H]DA uptake/DAT binding (DAT [6]): 2.7
- IC50 (DAT [5]): 38.3 nM

SMILES: COc1ccc(CN[C@H]2C[C@H](C(c3ccccc3)c3ccccc3)OC[C@H]2O)cc1 [(+)-29g, (3S,4S,6R)-6-benzhydryl-4-(4-methoxy-benzylamino)-tetrahydropyran-3-ol]
- IC50 (DAT [1]; [12]): 3750 ± 620 nM
- IC50 (DAT [6]; [13]): 2670 ± 260 nM
- IC50 (SERT [7]; [14]): 3810 ± 460 nM
- IC50 (NET (Rattus norvegicus)): 1840 ± 580 nM

SMILES: O[C@@H]1CO[C@@H](C(c2ccccc2)c2ccccc2)C[C@@H]1NCc1ccccc1 [(+)-29h, (3S,4S,6R)-6-benzhydryl-4-benzylamino-tetrahydropyran-3-ol]
- IC50 (DAT [1]; [12]): 1250 ± 100 nM
- IC50 (DAT [6]; [13]): 962 ± 97 nM
- IC50 (SERT [7]; [14]): 4420 ± 410 nM
- IC50 (NET (Rattus norvegicus)): 3220 ± 570 nM

SMILES: O[C@@H]1C[C@@H](C(c2ccccc2)c2ccccc2)OC[C@H]1NCc1ccc(F)cc1 [(−)-29b, (2S,4R,5R)-2-benzhydryl-5-(4-fluoro-benzylamino)-tetrahydro-pyran-4-ol]
- IC50 (DAT [1]): 308 ± 25 nM
- IC50 (DAT [6]): 169 ± 20 nM
- IC50 (SERT [7]): 676 ± 33 nM
- IC50 (NET (Rattus norvegicus)): 13.3 ± 1 nM
- selectivity for the NET (NRI profile), in words (NET [8]): selective blockers for NET
- selectivity for the NET (NRI profile), in words (NET [8]; listed as (−)29b): more selective for the NET

SMILES: O[C@@H]1C[C@@H](C(c2ccccc2)c2ccccc2)OC[C@H]1NCCc1ccc(F)cc1 [(−)-29c, (2S,4R,5R)-2-benzhydryl-5-[2-(4-fluoro-phenyl)-ethylamino]-tetrahydropyran-4-ol]
- IC50 (DAT [1]; [12]): 1050 ± 40 nM
- IC50 (DAT [6]; [13]): 427 ± 67 nM
- IC50 (SERT [7]; [14]): 3570 ± 140 nM
- IC50 (NET (Rattus norvegicus)): 439 ± 14 nM

SMILES: COc1ccc(CN[C@@H]2CO[C@H](C(c3ccccc3)c3ccccc3)C[C@H]2O)c(OC)c1 [(−)-29e, (2S,4R,5R)-2-benzhydryl-5-(2,4-dimethoxy-benzylamino)-tetrahydropyran-4-ol]
- IC50 (DAT [1]; [12]): 1060 nM
- IC50 (DAT [6]; [13]): 710 ± 130 nM
- IC50 (SERT [7]; [14]): 24 ± 4 nM
- blockade of both SERT and NET (SNRI profile), in words (SERT [7]; Table 4): dual transport blockers; also recorded: potent blockers for both SERT and NET
- IC50 (NET (Rattus norvegicus)): 115 ± 14 nM

SMILES: COc1cc(CN[C@@H]2CO[C@H](C(c3ccccc3)c3ccccc3)C[C@H]2O)cc(OC)c1 [(−)-29f, (2S,4R,5R)-2-benzhydryl-5-(3,5-dimethoxy-benzylamino)-tetrahydropyran-4-ol]
- IC50 (DAT [1]; [12]): 298 ± 29 nM
- IC50 (DAT [6]; [13]): 135 ± 3 nM
- IC50 (SERT [7]; [14]): 25.4 ± 2 nM
- blockade of both SERT and NET (SNRI profile), in words (SERT [7]; Table 4): potent blockers for both SERT and NET
- blockade of both SERT and NET (SNRI profile), in words (SERT [7]; Table 4, listed as (−)29f): dual transport blockers
- IC50 (NET (Rattus norvegicus)): 108 ± 11 nM

SMILES: COc1ccc(CN[C@@H]2C[C@@H](C(c3ccccc3)c3ccccc3)OC[C@@H]2O)cc1 [(−)-29g, (3R,4R,6S)-6-benzhydryl-4-(4-methoxy-benzylamino)-tetrahydro-pyran-3-ol]
- IC50 (DAT [1]; [12]): 771 ± 86 nM
- IC50 (DAT [6]; [13]): 822 ± 120 nM
- IC50 (SERT [7]; [14]): 1070 ± 100 nM
- IC50 (NET (Rattus norvegicus)): 765 ± 34 nM

SMILES: O[C@@H]1CO[C@H](C(c2ccccc2)c2ccccc2)C[C@H]1NCc1ccccc1 [(−)-29h, (3S,4R,6S)-6-benzhydryl-4-benzylamino-tetrahydropyran-3-ol]
- IC50 (DAT [1]; [12]): 4640 ± 1030 nM
- IC50 (DAT [6]; [13]): 2610 ± 140 nM
- IC50 (SERT [7]; [14]): 10000 nM
- IC50 (NET (Rattus norvegicus)): 336 ± 33 nM
